In publication PMC8184855, “A small molecule inhibitor of Nox2 and Nox4 improves contractile function after ischemia–reperfusion in the mouse heart” (Scientific Reports, 2021):

Molecular target: T1, Nox4 (Homo sapiens, UniProt Q9NPH5)
T1 sequence (Q9NPH5 1-578): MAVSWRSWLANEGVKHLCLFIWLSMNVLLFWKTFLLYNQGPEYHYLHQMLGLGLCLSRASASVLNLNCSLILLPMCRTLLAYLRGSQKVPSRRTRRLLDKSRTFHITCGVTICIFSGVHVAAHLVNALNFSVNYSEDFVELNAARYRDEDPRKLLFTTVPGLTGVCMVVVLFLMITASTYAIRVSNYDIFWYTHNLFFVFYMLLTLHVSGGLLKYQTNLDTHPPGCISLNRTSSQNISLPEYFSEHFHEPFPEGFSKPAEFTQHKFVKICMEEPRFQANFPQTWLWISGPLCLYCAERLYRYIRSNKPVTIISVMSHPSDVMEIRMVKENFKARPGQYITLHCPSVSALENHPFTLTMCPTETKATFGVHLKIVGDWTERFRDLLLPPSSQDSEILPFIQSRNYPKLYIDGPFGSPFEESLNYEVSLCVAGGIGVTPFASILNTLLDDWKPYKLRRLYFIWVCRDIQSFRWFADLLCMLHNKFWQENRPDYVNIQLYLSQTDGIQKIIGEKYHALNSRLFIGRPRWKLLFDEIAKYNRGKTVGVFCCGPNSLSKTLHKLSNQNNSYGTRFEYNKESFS
Test: Amplex Red H2O2 assay in CJ HEK […] cells overexpressing Nox4 (found by screen in T-Rex-293 with inducible Nox4); H2O2 counter-screen and DPPH redox control
Assay type: cell-based

COc1cccc(N2CCN(Cc3nc(N)nc(Nc4ccc(C)c(C)c4)n3)CC2)c1 [GLX481304]
IC50: 1.25 µM
